This is an account of results in patent US7989005B2, “Corosolic acid formulation and its application for weight-loss management and blood sugar balance” (Soft Gel Technologies, Inc., priority 2000, dated 2011).

The test system of data set [1] is Ehrlich Ascites tumor cells. The settings on record: in-vitro; cited from earlier work.
Data set [2] is described as follows: Acute toxicity studies in rats, single oral limit-dose. Format: in vivo. The settings on record: single oral limit-dose of 5 g/Kg. From the text:
The Journal of the Philippine Medical Association, 22, #7, 395402, 1940; Garcia, F. Distribution and Deterioration of Insulin-like Principle in Lagerstroemia Speciosa (Banaba). Acta Medica Philippina, 99-104; Garcia, F., and Melencio-Maglalang, P. Application of Banabins (A Plantisul Preparation) and S. B. Menus to Diabetics. The Journal of the Philippine Medical Association, 33, #1, 7-16, 1957; Garcia, F. Criticisms and Answers on Published Articles concerning Banabins or Plantisul Tablets. The Journal of the Philippine Medical Association, 35, #5, 313-319, 1959; Garcia, L., Pojas, F., Castro, I., Venzon, E., Sisson, F. and Capal, T. Pharmaceutico-chemical and Pharmacological Studies on a Crude Drug from Lagerstroemia Speciosa. The Philippine Journal of Science, 116, #4, 361-375, 1987; Scalori V et al., Int. J. Tiss. Reac., 1983, X 2, 95-97).

`C[C@H]1[C@H](C)CC[C@]2(C(=O)O)CC[C@]3(C)C(=CC[C@@H]4[C@@]5(C)C[C@@H](O)[C@H](O)C(C)(C)[C@@H]5CC[C@]43C)[C@H]12` [Corosolic acid, 2-a-hydroxyursolic acid]: the “cellular uptake of glucose” value in data set [1] is “improves the cellular uptake of glucose”. The acute toxicity result in data set [2] was “safe and non-toxic”.
